Data reported in the supplement of paper PMC8671470.

Assays:
Assay in all cases: cell viability (% survival relative to DMSO control); higher = less cytotoxic
Details in all cases: 72 h
BV-173 = system: BV-173
Protocol: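 8x8 drug-combination matrices (0–5000 nM; rosiglitazone and lestaurtinib 0–1000 nM) were run in BV-173 cells for 72 h with CellTiter-Glo read-out. Survival is normalised to DMSO and 10 µM bortezomib and clipped at 100%.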

[1] = system: myeloid leukemia patient primary cells Pat.14
Summary of the method: (§1)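 Mononuclear cells from patients with AML or CML were thawed, purified on Ficoll and placed in RPMI 1640 with 10% FBS at 10,000 cells/well on 384-well plates. The plates came pre-printed with 70 compounds at five tenfold concentrations spanning 1–10,000 nM, in duplicate, and cells were exposed for 72 h. CellTiter-Glo gave viability, scaled between DMSO wells and wells with 10 μM proteasome inhibitor. Where reported, area under the curve was obtained from log-logistic fits with four parameters using the drc and PharmacoGx R packages.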

[2] = system: myeloid leukemia patient primary cells Pat.4
Summary of the method: as §1

[3] = system: myeloid leukemia patient primary cells Pat.1
Summary of the method: as §1

[4] = system: myeloid leukemia patient primary cells Pat.8
Summary of the method: as §1

[5] = system: myeloid leukemia patient primary cells Pat.9
Summary of the method: as §1

[6] = system: myeloid leukemia patient primary cells Pat.12
Summary of the method: as §1

[7] = system: myeloid leukemia patient primary cells Pat.3
Summary of the method: as §1

[8] = system: myeloid leukemia patient primary cells Pat.5
Summary of the method: as §1

[9] = system: myeloid leukemia patient primary cells Pat.13
Summary of the method: as §1

CN(CCOc1ccc(Cc2sc(O)nc2O)cc1)c1ccccn1 [Rosiglitazone] + c1cc(-c2cnn3cc(-c4ccc(OCCN5CCCCC5)cc4)cnc23)ccn1 [Dorsomorphin]
cell viability [%], BV-173
Details	drug1 concentration 1 nM	drug1 concentration 5 nM	drug1 concentration 10 nM	drug1 concentration 50 nM	drug1 concentration 100 nM	drug1 concentration 500 nM	drug1 concentration 1000 nM
drug2 concentration 5 nM	> 100	> 100	> 100	> 100	> 100	> 100	91.8
drug2 concentration 10 nM	> 100	> 100	> 100	97.8	> 100	> 100	> 100
drug2 concentration 50 nM	58.5	> 100	> 100	> 100	> 100	> 100	> 100
drug2 concentration 100 nM	> 100	99.4	> 100	77.2	> 100	> 100	> 100
drug2 concentration 500 nM	> 100	> 100	94.2	> 100	> 100	98.4	95.3
drug2 concentration 1000 nM	91.7	> 100	62.5	> 100	> 100	> 100	> 100
drug2 concentration 5000 nM	75.2	85	99.8	93.5	97.2	> 100	> 100

C=CCN(C)CCCCCCOc1ccc(C(=O)c2ccc(Br)cc2)c(F)c1.O=C(O)/C=C/C(=O)O [Ro 48-8071 fumarate]
cell viability [%]
Details	[1]	[2]	[3]	[4]	[5]	[6]	[7]	[8]	[9]
1 nM	93.2	86.4	97.8	78.8	90.4	96.5	55	> 100	92.9
10 nM	99.3	92	94.5	96.9	69.8	91.5	59.7	61.6	98.7
100 nM	91.9	88.3	97.4	94.9	87.2	93.7	28.2	73.3	82.6
1000 nM	99.6	88.5	82.7	92.1	84.8	82.9	21.8	73.5	85.6
10000 nM	21	56.3	37.2	75.8	< 0	77.6	6.91	0.265	51.7

O=c1cc(N2CCOCC2)oc2c(-c3ccccc3)cccc12
cell viability [%]
Details	[1]	[2]	[3]	[4]	[5]	[6]	[7]	[8]	[9]
1 nM	86.4	78.8	77.8	88.3	63.7	91.4	96.2	47.8	88.7
10 nM	56.8	98.5	83.5	86	15.2	98.3	37.6	0.265	95.7
100 nM	91.1	86.1	78	92.4	77.7	92.6	92.2	70.4	83.6
1000 nM	77.9	63.1	63.6	67.1	54.8	97.4	80	58.3	91.4
10000 nM	58.3	14.4	27.5	61.5	12.5	92.4	61.6	< 0	45.6

Cc1c2c(=O)n(-c3ccccc3Cl)[nH]c2cc(=O)n1Cc1ccccn1
cell viability [%]
Details	[1]	[2]	[3]	[4]	[5]	[6]	[7]	[8]	[9]
1 nM	28.5	63.6	53.7	79.7	1.24	89.5	25.8	3.33	66.5
10 nM	69.8	90.8	89.9	92.3	62.4	97.6	94.3	9.25	80
100 nM	64.5	81.5	91.5	86.6	54.9	99.3	92.2	36.7	92.6
1000 nM	99.6	98.5	96.7	96.9	100	88.3	> 100	81.3	88.9
10000 nM	> 100	72.8	85.5	75.9	100	92.2	> 100	85.9	92.5

CN(CCOc1ccc(Cc2sc(O)nc2O)cc1)c1ccccn1 [Rosiglitazone]
cell viability [%]
Details	[1]	[2]	[3]	[4]	[5]	[6]	[7]	[8]	[9]
1 nM	53.7	83.3	80.1	92.6	55	> 100	91.7	9.01	80.8
10 nM	59.7	93	72.6	87	24.9	97.4	63.6	3.3	69.2
100 nM	> 100	99.6	92.5	80.3	94.9	95.7	99.4	91.7	99.9
1000 nM	91.1	94.1	95.9	91.8	61.9	96.5	79.2	92.8	91.9
10000 nM	50	95.3	84.4	69.7	29.7	88.9	36	6.86	78.3
